Patent US20260373193A1, “CARCINOGENESIS REDUCTION WITH PENTAAZA MACROCYLIC RING COMPLEX” (GALERA LABS, LLC, priority 2023, published 2026)

System: lung masses
Test: incidence of lung masses at necropsy
Type: in vivo, mouse (female BALB/c)
Conditions: for # Lung Masses / % Yield (percentage mice with lung masses): GC4419 24 mg/kg i.p.; for occurrence of lung masses vs untreated / incidence of lung tumors vs untreated: final results (FIG. 4)
Description: All animal studies conducted used female BALB/c mice irradiated at 77-91 days of age and housed for a lifetime study to determine rates of carcinogenesis and survival. Animals were purchased from Charles River Laboratory, shipped to Brookhaven National Laboratory, and irradiated with the doses and ion species described below.
Animals were treated or not with GC4419. Those animals treated with GC4419 followed the following strategy. GC4419 was delivered at a dose of 24 mg/kg (mice were weighed prior to drug delivery) interperitoneally (i.p.) at roughly 45-60 minutes prior to radiation exposure. GC4419 was then provided i.p. for the next 6 days, and the animals were shipped to UT Southwestern (UTSW) Medical Center for temporary quarantine before returning to the animal facility. Upon return to UTSW the animals were treated with GC4419 i.p. weekly for another 11 weeks for a total of 12 weeks on treatment.
Radiation exposures were whole body. The galactic cosmic ray (GCR) simulation exposures used the beam line at the NASA Space Radiation Laboratory at Brookhaven National Lab (BNL) and the γ-ray exposures used a ^137Cs source at BNL. Subsequent to single dose irradiation, animals were returned to their cages.
Galactic cosmic rays (GCR) are heavy ion radiation characteristic of the deep space environment, and the GCR simulation (GCRsim) at BNL mimics the complex radiation environment in space. The GCRsim ions used are described in Table 1 below.
Pathological endpoints were also considered. Specifically, lung cancer induction, or carcinogenesis, and other tumors that are evident in numbers large enough to consider as secondary endpoints. These endpoints are described in the following tables and figure. The term “masses” is used to describe an abnormal growth, evident by eye, within a given tissue; for example, the term “lung masses” is used to describe abnormal tissues found in the lung that are collected for pathologic examination.
Given prior experience with the mouse model of radiation-induced carcinogenesis, it is expected that most, if not all, of the lung masses are tumors. For the ovarian masses, some proportion of the masses are expected to be tumors. For observations of hepatosplenomegaly, many of the enlarged livers and spleens may not reflect tumors of those organs. These may, however, may be present as result of hematologic malignancies, such as leukemias, but that was not assessed in this experiment.
Table 2 presents the incidence of lung masses observed at necropsy by treatment cohort, including preliminary data for certain γ-ray cohorts through approximately 600 days post-irradiation and for unirradiated animals treated with GC4419 (Control+GC4419) cohort through approximately 400 days post-irradiation. FIG. 4 presents final results for incidence of lung masses. […] In other words, in part GC4419 could have delayed carcinogenesis.

Which “# Lung Masses” value (GCRsim 0.4 Gy, 224 mice) does the source give for [Cl][Mn][Cl].c1cc2nc(c1)CN[C@H]1CCCC[C@@H]1NCCN[C@H]1CCCC[C@@H]1NC2 [GC4419] here?
Its value is 24.

What about the “% Yield (percentage mice with lung masses)” value (GCRsim 0.4 Gy, 224 mice, untreated pair 10.0) of the same molecule?
Its value is 10.7%.

And the “# Lung Masses” value (GCRsim 0.75 Gy, 248 mice)?
Its value is 27.

And the “% Yield (percentage mice with lung masses)” value (GCRsim 0.75 Gy, 248 mice, untreated pair 21.0)?
Its value is 10.9%.

What about the “occurrence of lung masses vs untreated” value (GCRsim 0.75 Gy, p<0.01) of the same molecule?
The value was “markedly and statistically significantly decreased occurrence of lung masses”.

And the “# Lung Masses” value (unirradiated (0 Gy), 235 mice, preliminary, approx. 400 days)?
Its value is 1.

And the “% Yield (percentage mice with lung masses)” value (unirradiated (0 Gy), 235 mice, preliminary, approx. 400 days, untreated pair 10.6)?
The value was 0.4%.

And the “incidence of lung tumors vs untreated” value (unirradiated (Control))?
Its value is “absence of a clear difference”.

And the “# Lung Masses” value (γ-ray 0.75 Gy, 248 mice, preliminary for certain γ-ray cohorts (approx. 600 days))?
Its value is 15.

And the “% Yield (percentage mice with lung masses)” value (γ-ray 0.75 Gy, 248 mice, preliminary for certain γ-ray cohorts (approx. 600 days), untreated pair 14.7)?
The value was 6.0%.

And the “occurrence of lung masses vs untreated” value (γ-ray 0.75 Gy, p<0.05)?
The value was “markedly and statistically significantly decreased occurrence of lung masses”.

What about the “# Lung Masses” value (γ-ray 1.5 Gy, 248 mice, preliminary for certain γ-ray cohorts (approx. 600 days)) of the same molecule?
Its value is 16.

And the “% Yield (percentage mice with lung masses)” value (γ-ray 1.5 Gy, 248 mice, preliminary for certain γ-ray cohorts (approx. 600 days), untreated pair 11.9)?
Its value is 6.5%.

What about the “incidence of lung tumors vs untreated” value (γ-ray 1.5 Gy) of the same molecule?
The value was “absence of a clear difference”.
